# Legend:
# Experiment in all cases: relative viability (nuclei count vs DMSO), 5 days (fraction); higher = more cells survive
# NCI-H838 = system: NCI-H838
# Method in brief: (§1)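 Lung cancer cell lines, seeded in 1536-well plates, were treated the following day by pin tool with a single drug or with five library-drug doses (not always all listed) in √10 steps on top of a fixed anchor-drug dose. Cells were fixed and nuclei stained in one step after 5 days, and nuclei were counted. Relative viability is the nuclei count for treated wells divided by that for vehicle wells, reported as medians of duplicate plates.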
# HOP-62 = system: HOP-62
# Method in brief: as §1
# NCI-H596 = system: NCI-H596
# Method in brief: as §1
# NCI-H1650 = system: NCI-H1650
# Method in brief: as §1
# LOU-NH91 = system: LOU-NH91
# Method in brief: as §1
# NCI-H2087 = system: NCI-H2087
# Method in brief: as §1
# HCC-44 = system: HCC-44
# Method in brief: as §1
# ChaGo-K-1 = system: ChaGo-K-1
# Method in brief: as §1
# HCC-78 = system: HCC-78
# Method in brief: as §1
# A-427 = system: A-427
# Method in brief: as §1
# NCI-H2023 = system: NCI-H2023
# Method in brief: as §1
# NCI-H358 = system: NCI-H358
# Method in brief: as §1
# NCI-H1734 = system: NCI-H1734
# Method in brief: as §1
# EKVX = system: EKVX
# Method in brief: as §1
# NCI-H3122 = system: NCI-H3122
# Method in brief: as §1
# NCI-H1395 = system: NCI-H1395
# Method in brief: as §1
# SK-MES-1 = system: SK-MES-1
# Method in brief: as §1
# COR-L23 = system: COR-L23
# Method in brief: as §1
# EPLC-272H = system: EPLC-272H
# Method in brief: as §1
# NCI-H661 = system: NCI-H661
# Method in brief: as §1
# NCI-H1915 = system: NCI-H1915
# Method in brief: as §1
# NCI-H650 = system: NCI-H650
# Method in brief: as §1
# HCC-366 = system: HCC-366
# Method in brief: as §1
compound,measurement,setting,value
O=c1[nH]c2ccccc2n1C1CCN(CCCC(c2ccc(F)cc2)c2ccc(F)cc2)CC1 [Pimozide] + COc1cccc2cc(-c3nc([C@H]4CC[C@H](C(=O)O)CC4)n4ncnc(N)c34)[nH]c12 [OSI-027] (partner 0.5 µM),relative viability,NCI-H838; first compound 0.08 µM,0.409
same,relative viability,NCI-H838; first compound 0.253 µM,0.388
same,relative viability,NCI-H838; first compound 0.8 µM,0.33
same,relative viability,NCI-H838; first compound 2.53 µM,0.4
same,relative viability,NCI-H838; first compound 8 µM,0.353
same,relative viability,HOP-62; first compound 0.08 µM,0.859
same,relative viability,HOP-62; first compound 0.253 µM,0.806
same,relative viability,HOP-62; first compound 2.53 µM,0.759
same,relative viability,HOP-62; first compound 8 µM,0.773
same,relative viability,NCI-H596; first compound 0.08 µM,0.627
same,relative viability,NCI-H596; first compound 0.253 µM,0.851
same,relative viability,NCI-H596; first compound 0.8 µM,0.642
same,relative viability,NCI-H596; first compound 2.53 µM,0.627
same,relative viability,NCI-H596; first compound 8 µM,0.481
same,relative viability,NCI-H1650; first compound 0.08 µM,0.459
same,relative viability,NCI-H1650; first compound 0.253 µM,0.668
same,relative viability,NCI-H1650; first compound 0.8 µM,0.491
same,relative viability,NCI-H1650; first compound 2.53 µM,0.643
same,relative viability,NCI-H1650; first compound 8 µM,0.437
same,relative viability,LOU-NH91; first compound 0.08 µM,0.442
same,relative viability,LOU-NH91; first compound 0.253 µM,0.699
same,relative viability,LOU-NH91; first compound 0.8 µM,0.638
same,relative viability,LOU-NH91; first compound 2.53 µM,0.729
same,relative viability,LOU-NH91; first compound 8 µM,0.708
same,relative viability,NCI-H2087; first compound 0.08 µM,0.765
same,relative viability,NCI-H2087; first compound 0.253 µM,0.55
same,relative viability,NCI-H2087; first compound 2.53 µM,0.427
same,relative viability,NCI-H2087; first compound 8 µM,0.377
same,relative viability,HCC-44; first compound 0.08 µM,0.489
same,relative viability,HCC-44; first compound 0.253 µM,0.554
same,relative viability,HCC-44; first compound 0.8 µM,0.4
same,relative viability,HCC-44; first compound 2.53 µM,0.52
same,relative viability,HCC-44; first compound 8 µM,0.289
same,relative viability,ChaGo-K-1; first compound 0.08 µM,0.594
same,relative viability,ChaGo-K-1; first compound 0.253 µM,0.555
same,relative viability,ChaGo-K-1; first compound 0.8 µM,0.517
same,relative viability,ChaGo-K-1; first compound 2.53 µM,0.531
same,relative viability,ChaGo-K-1; first compound 8 µM,0.485
same,relative viability,HCC-78; first compound 0.08 µM,0.439
same,relative viability,HCC-78; first compound 0.8 µM,0.345
same,relative viability,HCC-78; first compound 2.53 µM,0.36
same,relative viability,HCC-78; first compound 8 µM,0.354
same,relative viability,A-427; first compound 0.08 µM,0.433
same,relative viability,A-427; first compound 0.253 µM,0.468
same,relative viability,A-427; first compound 0.8 µM,0.414
same,relative viability,A-427; first compound 2.53 µM,0.419
same,relative viability,A-427; first compound 8 µM,0.406
same,relative viability,NCI-H2023; first compound 0.08 µM,0.418
same,relative viability,NCI-H2023; first compound 0.253 µM,0.465
same,relative viability,NCI-H2023; first compound 0.8 µM,0.413
same,relative viability,NCI-H2023; first compound 2.53 µM,0.307
same,relative viability,NCI-H2023; first compound 8 µM,0.231
same,relative viability,NCI-H358; first compound 0.08 µM,0.829
same,relative viability,NCI-H358; first compound 0.253 µM,0.74
same,relative viability,NCI-H358; first compound 0.8 µM,0.697
same,relative viability,NCI-H358; first compound 2.53 µM,0.646
same,relative viability,NCI-H358; first compound 8 µM,0.678
same,relative viability,NCI-H1734; first compound 0.08 µM,0.604
same,relative viability,NCI-H1734; first compound 0.253 µM,0.625
same,relative viability,NCI-H1734; first compound 2.53 µM,0.581
same,relative viability,NCI-H1734; first compound 8 µM,0.549
same,relative viability,EKVX; first compound 0.08 µM,0.548
same,relative viability,EKVX; first compound 0.253 µM,0.733
same,relative viability,EKVX; first compound 0.8 µM,0.668
same,relative viability,EKVX; first compound 2.53 µM,0.637
same,relative viability,EKVX; first compound 8 µM,0.647
same,relative viability,NCI-H3122; first compound 0.08 µM,1.01
same,relative viability,NCI-H3122; first compound 0.253 µM,0.873
same,relative viability,NCI-H3122; first compound 0.8 µM,0.826
same,relative viability,NCI-H3122; first compound 2.53 µM,0.926
same,relative viability,NCI-H3122; first compound 8 µM,0.822
same,relative viability,NCI-H1395; first compound 0.08 µM,0.642
same,relative viability,NCI-H1395; first compound 0.253 µM,0.611
same,relative viability,NCI-H1395; first compound 0.8 µM,0.565
same,relative viability,NCI-H1395; first compound 2.53 µM,0.629
same,relative viability,NCI-H1395; first compound 8 µM,0.557
same,relative viability,SK-MES-1; first compound 0.08 µM,0.61
same,relative viability,SK-MES-1; first compound 0.253 µM,0.572
same,relative viability,SK-MES-1; first compound 0.8 µM,0.546
same,relative viability,SK-MES-1; first compound 2.53 µM,0.586
same,relative viability,SK-MES-1; first compound 8 µM,0.463
same,relative viability,COR-L23; first compound 0.08 µM,0.757
same,relative viability,COR-L23; first compound 0.253 µM,0.75
same,relative viability,COR-L23; first compound 0.8 µM,0.694
same,relative viability,COR-L23; first compound 2.53 µM,0.731
same,relative viability,COR-L23; first compound 8 µM,0.639
same,relative viability,EPLC-272H; first compound 0.08 µM,0.276
same,relative viability,EPLC-272H; first compound 0.253 µM,0.302
same,relative viability,EPLC-272H; first compound 0.8 µM,0.25
same,relative viability,EPLC-272H; first compound 2.53 µM,0.176
same,relative viability,EPLC-272H; first compound 8 µM,0.234
same,relative viability,NCI-H661; first compound 0.08 µM,0.691
same,relative viability,NCI-H661; first compound 0.253 µM,0.647
same,relative viability,NCI-H661; first compound 0.8 µM,0.624
same,relative viability,NCI-H661; first compound 2.53 µM,0.533
same,relative viability,NCI-H661; first compound 8 µM,0.538
same,relative viability,NCI-H1915; first compound 0.08 µM,0.6
same,relative viability,NCI-H1915; first compound 0.253 µM,0.575
same,relative viability,NCI-H1915; first compound 0.8 µM,0.384
same,relative viability,NCI-H1915; first compound 2.53 µM,0.581
same,relative viability,NCI-H1915; first compound 8 µM,0.478
same,relative viability,NCI-H650; first compound 0.08 µM,0.536
same,relative viability,NCI-H650; first compound 0.253 µM,0.555
same,relative viability,NCI-H650; first compound 0.8 µM,0.405
same,relative viability,NCI-H650; first compound 2.53 µM,0.537
same,relative viability,NCI-H650; first compound 8 µM,0.606
same,relative viability,HCC-366; first compound 0.08 µM,0.825
same,relative viability,HCC-366; first compound 0.253 µM,0.795
same,relative viability,HCC-366; first compound 0.8 µM,0.477
same,relative viability,HCC-366; first compound 2.53 µM,0.614
same,relative viability,HCC-366; first compound 8 µM,0.206

# Reference: the supplement of paper PMC10307832
